According to patent publication US4735949A, “Disubstituted-7-pyrrolidinonaphthyridine antibacterial agents” (Warner-Lambert Company, priority 1987, dated 1988):
Values after ≈ are worked out from the molar mass of the structure shown. Read-outs that look alike come from different tables or passages of the source.

Key:
Test in all cases: in vitro antibacterial activity, microtitration dilution method
Format in all cases: cell-based
[1] = system: Enterobacter cloacae MA 2646
From the text: (§1) Agents & Chemoth., 6, 124 (1974), which is incorporated herein by reference.

Escherichia coli Vogel = conditions: read-out: Minimal Inhibitory Concentration MIC
From the text: as §1

[2] = system: Klebsiella pneumoniae MGH-2
From the text: as §1

Proteus rettgeri M 1771 = conditions: Providencia rettgeri
From the text: as §1

[3] = system: Staphylococcus aureus H 228; conditions: H228; Staphylococcus aureus H 228, in vitro; read-out: Minimal Inhibitory Concentration MIC
From the text: (§2) The compounds of the invention display antibacterial activity when tested by the microtitration dilution method as described in Heifetz, et al, Antimicr. Agents & Chemoth., 6, 124 (1974), which is incorporated herein by reference.
(§3) By use of the above referenced method, the following minimum inhibitory concentration values (MICs in μg/ml) were obtained for representative compounds of the invention.

[4] = system: Staphylococcus aureus UC-76; conditions: UC76; Staphylococcus aureus UC-76, in vitro; read-out: Minimal Inhibitory Concentration MIC
From the text: as §2, §3

[5] = system: Streptococcus faecalis MGH-2; conditions: Enterococcus faecalis, MGH2; Streptococcus faecalis MGH-2, in vitro; read-out: Minimal Inhibitory Concentration MIC
From the text: as §2, §3

[6] = system: Streptococcus pneumoniae SV-1; conditions: SV1; Streptococcus pneumoniae SV-1, in vitro; read-out: Minimal Inhibitory Concentration MIC
From the text: as §2, §3

[7] = system: Streptococcus pyogenes C-203; conditions: C203; Streptococcus pyogenes C-203, in vitro; read-out: Minimal Inhibitory Concentration MIC
From the text: as §2, §3

[8] = system: Pseudomonas aeruginosa UI-18; conditions: UI18; Pseudomonas aeruginosa UI-18, in vitro; read-out: Minimal Inhibitory Concentration MIC
From the text: as §1

[9] = Klebsiella pneumoniae, MGH2, read-out: Minimal Inhibitory Concentration MIC
[10] = M1771, read-out: Minimal Inhibitory Concentration MIC
[11] = MA2646, Enterobacter cloacae MA 2646, in vitro, read-out: Minimal Inhibitory Concentration MIC
[12] = M1771, Proteus rettgeri M 1771, in vitro, read-out: Minimal Inhibitory Concentration MIC

MIC ([2]; MGH2, Klebsiella pneumoniae MGH-2, in vitro, read-out: Minimal Inhibitory Concentration MIC)	SMILES	MIC ([1]; Enterobacter cloacae, MA2646, read-out: Minimal Inhibitory Concentration MIC)	MIC (Escherichia coli Vogel)	MIC [2, 9]	MIC (Proteus rettgeri M 1771; [10])	MIC [3]	MIC [4]	MIC [5]	MIC [6]	MIC [7]	MIC [1, 11]	MIC (Proteus rettgeri M 1771; [12])	MIC [8]
	NC1(c2ccccc2)CCN(c2c(F)cc3c(=O)c(C(=O)O)cn(C4CC4)c3c2F)C1 (centres unmarked) [Example 1, 7-[(3-Amino-3-phenyl)-1-pyrrolidinyl]-1-cyclopropyl-6,8-difluoro-1,4-dihydro-4-oxo-3-quinolinecarboxylic acid]	0.05 µg/mL (≈ 0.118 µM)	0.05 µg/mL (≈ 0.118 µM)	0.1 µg/mL (≈ 0.235 µM)	0.1 µg/mL (≈ 0.235 µM)	6 ng/mL (≈ 0.0141 µM)	6 ng/mL (≈ 0.0141 µM)	0.05 µg/mL (≈ 0.118 µM)	0.025 µg/mL (≈ 0.0588 µM)	0.05 µg/mL (≈ 0.118 µM)			
	NCC1CN(c2c(F)cc3c(=O)c(C(=O)O)cn(C4CC4)c3c2F)CC1c1ccccc1 (centres unmarked) [Example 2]			0.1 µg/mL (≈ 0.228 µM)		13 ng/mL (≈ 0.0296 µM)	6 ng/mL (≈ 0.0137 µM)	0.013 µg/mL (≈ 0.0296 µM)	0.006 µg/mL (≈ 0.0137 µM)	0.013 µg/mL (≈ 0.0296 µM)	0.2 µg/mL (≈ 0.455 µM)	0.4 µg/mL (≈ 0.91 µM)	1.6 µg/mL (≈ 3.64 µM)
0.2 µg/mL (≈ 0.47 µM)	NC1CN(c2c(F)cc3c(=O)c(C(=O)O)cn(C4CC4)c3c2F)CC1c1ccccc1 (centres unmarked) [Example 3, 7-[(3-Amino-4-phenyl)-1-pyrrolidinyl]-1-cyclopropyl-6,8-difluoro-1,4-dihydro-4-oxo-3-quinolinecarboxylic acid]		0.1 µg/mL (≈ 0.235 µM)			50 ng/mL (≈ 0.118 µM)	25 ng/mL (≈ 0.0588 µM)	0.1 µg/mL (≈ 0.235 µM)	0.1 µg/mL (≈ 0.235 µM)	0.1 µg/mL (≈ 0.235 µM)	0.2 µg/mL (≈ 0.47 µM)	0.4 µg/mL (≈ 0.94 µM)	1.6 µg/mL (≈ 3.76 µM)
	O=C(O)c1cn(C2CC2)c2c(F)c(N3CCC(O)(c4ccccc4)C3)c(F)cc2c1=O (centres unmarked) [Example 4, 1-Cyclopropyl-6,8-difluoro-1,4-dihydro-7-[(3-hydroxy-3-phenyl)1-pyrrolidinyl]-4-oxo-3-quinolinecarboxylic acid]			0.1 µg/mL (≈ 0.235 µM)	0.1 µg/mL (≈ 0.235 µM)	3 ng/mL (≈ 0.00704 µM)	3 ng/mL (≈ 0.00704 µM)	0.025 µg/mL (≈ 0.0586 µM)	0.013 µg/mL (≈ 0.0305 µM)	0.05 µg/mL (≈ 0.117 µM)			
